Experimental data reported in patent US20180161295A1, “TREATMENT OF CLOSED HEAD INJURY AND HEMORRHAGIC STROKE WITH HBED” (University of Florida Research Foundation, Incorporated, priority 2014, published 2018).
Entries after “also recorded” stand apart in the source; their conditions may differ.

Key:
mTBI animals = test: Lower limb spasticity (velocity dependent ankle torque and triceps EMG) after weight drop closed head injury (mTBI); assay type: in vivo, rats; conditions: 50 mg/kg s.c. 2x per day for 2 weeks, PO Wk-1 and PO Wk-3
Procedure: Ankle torque, displacement and EMGs are simultaneously recorded and time-locked to onset of dorsiflexion. Velocity dependent ankle torque was tested between 49 and 612 degrees/sec dorsiflexion in awake rats.
These experiments were performed to assess the influence of treatment using NaHBED following mTBI. Fifteen mTBIs were performed as described above, using 450×1.25m weight drop closed head injury. The animals were randomly divided into two groups, control (n=5) and iron chelator (IC) NaHBED treatment (n=10). Beginning on the first day following injury, NaHBED was delivered by subcutaneous injection of 50 mg/kg, 2× per day, for a total dosage of 100 mg/kg/body weight/day. NaHBED 60 mg/ml, was dissolved in deionized, sterilized, iron-free water. The IC was administered every day for 2 weeks. The control animals received equal volume subcutaneous injections of saline.
Spasticity: The influence of treatment was tested by analysis of lower limb spasticity (velocity dependent ankle torque and triceps EMG), in mTBI treated and non-treated mTBI animals. A normal ICT group (Normal HBED) was also included as a treatment control.

iron-loaded beagle dogs = test: 28-day intravenous repeat dose toxicity study, iron-loaded dogs; assay type: in vivo
Procedure: (§1) 28-Day Intravenous Repeat Dose Toxicity Study of NaHBED in Male and Female Dogs SRI Study.
(§2) Male and female beagle dogs were either infused biweekly with iron dextran to a level of approximately 500 mg iron/kg body weight or held without iron loading during the 2-month pretreatment phase. All dogs were held an additional 2 ½ months before beginning dose administration with N,N′-di(2-hydroxybenzypethylenediarnine-N,N′-diacetic acid, monosodium salt (NaHBED). Groups of 4 male and 4 female dogs that had been iron-loaded received NaHBED at 21.46, 64.38, or 128.76 mg/kg daily in 15-35 min intravenous (i.v.) infusions for 28 consecutive days; a non-iron-loaded group containing the same number of dogs of each sex received 21.46 mg NaHBED/kg/day i.v. during the same period. Vehicle-only control groups of iron-loaded and non-iron-loaded dogs (3 males and 3 females per group) were subjected to the same regimen concurrently. […] During the treatment period, clinical observations on the animals were made daily after dosing. Body weights were measured before the start of dosing with NaHBED, weekly during the 28-day treatment period, and at study termination when recovery animals were sacrificed; food consumption was measured weekly during the treatment period. Hematology and clinical chemistry parameters, including serum iron parameters, were assessed at Weeks-1, 2, 4, and 8. Urinalysis was performed on bladder urine samples at necropsy. Plasma samples were collected for drug level analysis at selected timepoints after dosing on the first day and 28 days later. Routine ophthalmologic examinations and cardiovascular evaluations were conducted during the week prior to dose administration and during the third and fourth (eye exams) or fourth (cardiology exams) weeks of NaHBED administration. Organ weights were measured at necropsy and organ-to-body and -brain ratios determined. Gross and microscopic examination of a complete set of tissues was performed on iron-loaded high dose (128.76 mg/kg/day) and control groups and on non-iron-loaded low dose (21.46 mg/kg/day) and control groups. Specimens from liver, heart, spleen, lung, kidney, and eye were taken from each dog at necropsy for subsequent tissue analyses of iron and zinc content.

[1] = tested on: non-iron-loaded beagle dogs; test: 28-day intravenous repeat dose toxicity study, non-iron-loaded (normal) dogs; assay type: in vivo
Procedure: as §1, §2

[2] = Toxicokinetics (plasma drug level analysis) in the 28-day i.v. dog study; assay type: in vivo, beagle dogs
Procedure: Male and female beagle dogs were either infused biweekly with iron dextran to a level of approximately 500 mg iron/kg body weight or held without iron loading during the 2-month pretreatment phase. […] During the treatment period, clinical observations on the animals were made daily after dosing. Body weights were measured before the start of dosing with NaHBED, weekly during the 28-day treatment period, and at study termination when recovery animals were sacrificed; food consumption was measured weekly during the treatment period. Hematology and clinical chemistry parameters, including serum iron parameters, were assessed at Weeks-1, 2, 4, and 8. Urinalysis was performed on bladder urine samples at necropsy. Plasma samples were collected for drug level analysis at selected timepoints after dosing on the first day and 28 days later. Routine ophthalmologic examinations and cardiovascular evaluations were conducted during the week prior to dose administration and during the third and fourth (eye exams) or fourth (cardiology exams) weeks of NaHBED administration. Organ weights were measured at necropsy and organ-to-body and -brain ratios determined. […] Specimens from liver, heart, spleen, lung, kidney, and eye were taken from each dog at necropsy for subsequent tissue analyses of iron and zinc content.

[3] = repeated daily i.v. doses, iron-loaded beagle dogs, 28 days
[4] = non-iron-loaded dogs, 21.46 mg/kg/day i.v., at necropsy
[5] = non-iron-loaded dogs, 21.46 mg/kg/day i.v., statistically significant for males on Day 15

SMILES: O=C([O-])CN(CCN(CC(=O)O)Cc1ccccc1O)Cc1ccccc1O.[Na+] [NaHBED]
- amplitudes of time locked EMGs (mTBI animals): significantly lower
- amplitudes of velocity dependent ankle torques (mTBI animals): significantly lower
- histopathologic findings clearly associated with administration (iron-loaded beagle dogs; daily i.v. for 28 days): no histopathologic findings
- effects on body weight and food consumption; ophthalmologic, cardiovascular, hematology, clinical chemistry and urinalysis parameters; organ weights or weight ratios (iron-loaded beagle dogs; iron-loaded dogs, daily i.v. for 28 days): no distinguishable effects
- observable adverse effects (iron-loaded beagle dogs; iron-loaded dogs, high dose level (128.76 mg/kg/day i.v., 28 days)): emesis and/or diarrhea
- mean kidney iron content (iron-loaded beagle dogs; iron-loaded male groups, at necropsy): statistically lower
- kidney zinc content (iron-loaded beagle dogs; iron-loaded, high dose level group, at necropsy): statistically lower
- urine coloration (iron-loaded beagle dogs; majority of dogs at all dose levels, most of the treatment period): Reddish urine
- maximum tolerated dose (MTD) level (iron-loaded beagle dogs; [3]): > 128.76 mg/kg/day
- no observable adverse effect level (NOAEL) (iron-loaded beagle dogs; [3]): 64.38 mg/kg/day
- mobilization and excretion of iron and zinc ([1]; non-iron-loaded dogs, 21.46 mg/kg/day dose level, monosodium salt, 21.46 mg/kg/day): induced mobilization and enhanced excretion; also recorded: clear indication
- other effects ([1]; non-iron-loaded dogs, 21.46 mg/kg/day i.v., 28 days): No other effects
- iron content of kidneys [1, 4]: dramatic decrease
- zinc content of kidneys [1, 4]: dramatic decrease
- urine coloration ([1]; non-iron-loaded dogs, 21.46 mg/kg/day i.v., occasionally): slightly red coloration
- iron-to-transferrin ratio [1, 5]: apparent elevation
- serum iron [1, 5]: apparent elevation
- iron and zinc in kidneys, females ([1]; non-iron-loaded female dogs, 21.46 mg/kg/day i.v., at necropsy): virtual absence of either ion
- total body clearance, Day 28 relative to Day 1 ([2]; daily i.v., Day 28 vs Day 1): correspondingly elevated
- volume of distribution, Day 28 relative to Day 1 ([2]; daily i.v., Day 28 vs Day 1): correspondingly elevated
- toxicokinetic parameters, iron-loaded versus non-iron-loaded dogs ([2]; same dose level): similar
